Measured values from patent publication US11220482B2, “Aminopyridinemethanol compounds and their use” (UNIVERSITE AMIENS PICARDIE JULES VERNE, priority 2017, dated 2022).
Like-named read-outs stand apart in the source and are kept apart here.

How the values were obtained:
[1] = tested on: P. falciparum 3D7; assay: P. falciparum growth inhibition assay, second round (SYBR Green I, ICEstimator); format: cell-based, Plasmodium falciparum; settings: Plasmodium falciparum, 3D7, 48 h
[2] = tested on: P. falciparum W2; assay: as above; format: cell-based; settings: Plasmodium falciparum, 48 h
[3] = tested on: P. falciparum D6, W2 and 3D7 strains; settings: cited from earlier work
[4] = tested on: Plasmodium falciparum 3D7; assay: Plasmodium falciparum susceptibility assay, first round (SYBR Green I); format: cell-based; settings: 3D7, first round, 48-h incubation, strain susceptible to CQ, decreased susceptibility to MQ, read-out: IC50 (nM) Plasmodium falciparum 3D7 (converted)
[5] = tested on: Plasmodium falciparum W2; assay: as above; format: cell-based; settings: W2, first round, 48-h incubation, strain resistant to CQ, sensitive to MQ, read-out: IC50 (nM) Plasmodium falciparum W2 (converted)
[6] = tested on: CHO-K1 cells; assay: In vitro micronucleus assay, short-term exposure
How it was run: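 Micronuclei were scored in 1000 binucleated cells per well in duplicate wells. Cytostasis came from CBPI over 500 cells. Doses were compared with the negative control by χ2.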

[7] = tested on: CHO-K1 cells; settings: Chinese hamster, 24 h
Protocol: All the assays were conducted in duplicate. The CHO-K1 cells, suspended in Mac Coy's 5A medium, were transferred into Labteck wells at a concentration of 100,000 cells/mL, and incubated for 24 hours at 37° C. in CO2 (5%).
The test was performed without metabolic activation: the test substances were added into cell cultures at concentrations previously defined. […] After 24 hours of incubation at 37° C. in CO2 (5%), the culture medium was removed, the cells were rinsed with phosphate buffered saline (PBS), and then returned in culture medium containing […] of cytochalasine B. After a 24-hour incubation period at 37° C., cells were rinsed with phosphate buffered saline (PBS), fixed with methanol and stained with 10% Giemsa for 20 minutes.
The analysis of results was performed under a microscope at ×1000 magnification. The antiproliferative activity of test substances was estimated by counting the number of binucleated cells relative to the number of mononucleated cells on a total of 500 cells for each dose (250 cells counted per well). The proliferation index (Cytokinesis Blocked Proliferative Index CBPI) was calculated using the following formula:
The cytostasis index (CI %), i.e. the percentage of cell replication inhibition, was calculated using the following formula: CI %−100−{100×(CBPItest material−1)/(CBPIsolvent control−1)}
The rates of micronuclei were evaluated for the presence of independent nuclear core entities in 1000 binucleated cells per well, which corresponds to 2000 cells examined by test substance dose. Micronuclei were identified as small nuclei well differentiated from cell nucleus, stained in the same manner and having a diameter less than one third of that of the cell nucleus.
Micronuclei rates obtained for different doses of test substances were compared to the negative control by a χ2 test. The assay was considered positive if: • A dose-response relationship was obtained between the rate of micronuclei and the doses tested, • At least one of these doses induced a statistically significant increase (P<0.05) in the number of micronucleated cells as compared to the negative control.

[8] = tested on: Salmonella strains; assay: Bacterial reverse mutation assay (Ames test), overall conclusion; format: cell-based, S. typhimurium; settings: all tested doses, absence or presence of the metabolizing mixture
Protocol: Five strains of S. typhimurium were used. […] An additional strain has been chosen to detect cross-linking mutagens, hydrazines and oxidative agents: TA102, which have an AT base pair at the primary reversion site. Salmonella tester strains were gifts from Prof. B. N. Ames (Berkeley, Calif., USA). They were stored at −80° C. and regularly checked for genetic markers.
Few crystals of the frozen working strains were taken with a sterile pipette, and seeded in 10 mL of nutrient broth (NB No 2, Oxoid). Strains were grown overnight at 37° C. with shaking in Nutrient Broth No. 2, with ampicillin (25 μg/mL) for TA1535, TA97a, TA98, and TA 100, or ampicillin (25 μg/mL) plus tetracyclin (2 μg/mL) for TA 102. At the end of the incubation period, 0.1 mL of each overnight culture was mixed to 0.1 mL S9 Mix or 0.1 mL phosphate-buffered saline (PBS, pH 7.4) in 5 mL plastic tubes and various volumes of the tested samples were added to the mixtures. Each experiment included triplicate plates of four tested doses. A solvent (DMSO, 10 μL) control was added to determine the spontaneous frequency of revertants (quadruple plates). Five positive controls were also included to ensure the performance of the tester strains and the S9 Mix. […] After hardening, the plates were incubated at 37° C. for 48 hours.
At the end of the incubation period, revertants were counted with a laser colony counter equipped with a bacterial enumeration program (Spiral System Instrument Inc., Bethesda, Md., USA).
The Dunnett test was performed to determine a significant difference between the mean number of induced revertants and the mean number of spontaneous revertants.

[9] = tested on: S. typhimurium TA1535
[10] = tested on: S. typhimurium TA97a
[11] = tested on: S. typhimurium TA100
[12] = tested on: S. typhimurium TA102
[13] = tested on: S. typhimurium TA98; assay: Bacterial reverse mutation assay (Ames test)

O[C@@H](CNCCCCCCF)c1ccc(-c2ccc(C(F)(F)F)cc2)nc1C(F)(F)F [Compound 30t]
IC50 [1]: 1460 nM | IC50 [2]: 181 nM

O[C@H](c1cc(C(F)(F)F)nc2c(C(F)(F)F)cccc12)[C@@H]1CCCCN1 [(+)-mefloquine]
factor by which more active than the other mefloquine isomer [3]: 1.6-1.8

CCCCCNC[C@@H](O)c1ccc(-c2ccc(C(F)(F)F)cc2)nc1C(F)(F)F [Compound 30c, (S)-2-(Pentylamino)-1-(2-(trifluoromethyl)-6-(4-(trifluoromethyl)phenyl)pyridin-3-yl)ethanol]
IC50 [4]: 232 ± 17 nM | IC50 [5]: 24.4 nM | in vitro micronucleus assay result (clastogenic and/or aneugenic activities) [6]: negative results | BI (binucleated cells) ([7]; 5 μM): 432 | CBPI (Cytokinesis-Blocked Proliferative Index) ([7]; 5 μM): 1.86 | CI % (cytostasis index) ([7]; 5 μM): 5% | MNC1 (micronucleated cell rate) ([7]; 5 μM): 8 ‰ | MNC2 (micronucleated cell rate) ([7]; 5 μM): 12 ‰ | MNC-M (mean of micronucleated cell rates) ([7]; 5 μM): 10 ± 2.8 ‰ | MONO (mononucleated cells) ([7]; 5 μM): 68 | BI (binucleated cells) ([7]; 10 μM): 331 | CBPI (Cytokinesis-Blocked Proliferative Index) ([7]; 10 μM): 1.66 | CI % (cytostasis index) ([7]; 10 μM): 27% | MNC1 (micronucleated cell rate) ([7]; 10 μM): 9 ‰ | MNC2 (micronucleated cell rate) ([7]; 10 μM): 11 ‰ | MNC-M (mean of micronucleated cell rates) ([7]; 10 μM): 10 ± 1.4 ‰ | MONO (mononucleated cells) ([7]; 10 μM): 169 | BI (binucleated cells) ([7]; 50 μM): 218 | CBPI (Cytokinesis-Blocked Proliferative Index) ([7]; 50 μM): 1.42 | CI % (cytostasis index) ([7]; 50 μM): 52% | MNC1 (micronucleated cell rate) ([7]; 50 μM): 10 ‰ | MNC2 (micronucleated cell rate) ([7]; 50 μM): 12 ‰ | MNC-M (mean of micronucleated cell rates) ([7]; 50 μM): 11 ± 1.4 ‰ | MONO (mononucleated cells) ([7]; 50 μM): 282 | mutagenic activity in Salmonella strains (revertant rates) [8]: No significant increase in revertant rates | Number of revertants by plate (Means ± SD), TA1535 ([9]; with S9 mix, 0.4 μg/plate): 22 ± 5^NS | Number of revertants by plate (Means ± SD), TA1535 ([9]; with S9 mix, 0.6 μg/plate): 26 ± 6^NS | Number of revertants by plate (Means ± SD), TA1535 ([9]; with S9 mix, 0.8 μg/plate): 25 ± 8^NS | Number of revertants by plate (Means ± SD), TA1535 ([9]; with S9 mix, 1 μg/plate): 26 ± 7^NS | Number of revertants by plate (Means ± SD), TA1535 ([9]; without S9 mix, 0.4 μg/plate): 26 ± 3^NS | Number of revertants by plate (Means ± SD), TA1535 ([9]; without S9 mix, 0.6 μg/plate): 25 ± 4^NS | Number of revertants by plate (Means ± SD), TA1535 ([9]; without S9 mix, 0.8 μg/plate): 28 ± 8^NS | Number of revertants by plate (Means ± SD), TA1535 ([9]; without S9 mix, 1 μg/plate): 25 ± 6^NS | Number of revertants by plate (Means ± SD), TA97a ([10]; with S9 mix, 0.4 μg/plate): 128 ± 10^NS | Number of revertants by plate (Means ± SD), TA97a ([10]; with S9 mix, 0.6 μg/plate): 134 ± 8^NS | Number of revertants by plate (Means ± SD), TA97a ([10]; with S9 mix, 0.8 μg/plate): 137 ± 11^NS | Number of revertants by plate (Means ± SD), TA97a ([10]; with S9 mix, 1 μg/plate): 125 ± 8^NS | Number of revertants by plate (Means ± SD), TA97a ([10]; without S9 mix, 0.4 μg/plate): 148 ± 8^NS | Number of revertants by plate (Means ± SD), TA97a ([10]; without S9 mix, 0.6 μg/plate): 155 ± 6^NS | Number of revertants by plate (Means ± SD), TA97a ([10]; without S9 mix, 0.8 μg/plate): 159 ± 8^NS | Number of revertants by plate (Means ± SD), TA97a ([10]; without S9 mix, 1 μg/plate): 138 ± 8^NS | Number of revertants by plate (Means ± SD), TA100 ([11]; with S9 mix, 0.4 μg/plate): 202 ± 8^NS | Number of revertants by plate (Means ± SD), TA100 ([11]; with S9 mix, 0.6 μg/plate): 183 ± 12^NS | Number of revertants by plate (Means ± SD), TA100 ([11]; with S9 mix, 0.8 μg/plate): 178 ± 11^NS | Number of revertants by plate (Means ± SD), TA100 ([11]; with S9 mix, 1 μg/plate): 168 ± 12^NS | Number of revertants by plate (Means ± SD), TA100 ([11]; without S9 mix, 0.4 μg/plate): 197 ± 6^NS | Number of revertants by plate (Means ± SD), TA100 ([11]; without S9 mix, 0.6 μg/plate): 201 ± 9^NS | Number of revertants by plate (Means ± SD), TA100 ([11]; without S9 mix, 0.8 μg/plate): 211 ± 12^NS | Number of revertants by plate (Means ± SD), TA100 ([11]; without S9 mix, 1 μg/plate): 206 ± 14^NS | Number of revertants by plate (Means ± SD), TA102 ([12]; with S9 mix, 0.4 μg/plate): 346 ± 8^NS | Number of revertants by plate (Means ± SD), TA102 ([12]; with S9 mix, 0.6 μg/plate): 349 ± 12^NS | Number of revertants by plate (Means ± SD), TA102 ([12]; with S9 mix, 0.8 μg/plate): 368 ± 11^NS | Number of revertants by plate (Means ± SD), TA102 ([12]; with S9 mix, 1 μg/plate): 359 ± 6^NS | Number of revertants by plate (Means ± SD), TA102 ([12]; without S9 mix, 0.4 μg/plate): 298 ± 21^NS | Number of revertants by plate (Means ± SD), TA102 ([12]; without S9 mix, 0.6 μg/plate): 319 ± 14^NS | Number of revertants by plate (Means ± SD), TA102 ([12]; without S9 mix, 0.8 μg/plate): 331 ± 17^NS | Number of revertants by plate (Means ± SD), TA102 ([12]; without S9 mix, 1 μg/plate): 339 ± 12^NS | Number of revertants by plate (Means ± SD), TA98 ([13]; with S9 mix, 0.4 μg/plate): 34 ± 6^NS | Number of revertants by plate (Means ± SD), TA98 ([13]; with S9 mix, 0.6 μg/plate): 38 ± 5^NS | Number of revertants by plate (Means ± SD), TA98 ([13]; with S9 mix, 0.8 μg/plate): 28 ± 4^NS | Number of revertants by plate (Means ± SD), TA98 ([13]; with S9 mix, 1 μg/plate): 26 ± 6^NS | Number of revertants by plate (Means ± SD), TA98 ([13]; without S9 mix, 0.4 μg/plate): 35 ± 3^NS | Number of revertants by plate (Means ± SD), TA98 ([13]; without S9 mix, 0.6 μg/plate): 33 ± 2^NS | Number of revertants by plate (Means ± SD), TA98 ([13]; without S9 mix, 0.8 μg/plate): 34 ± 5^NS | Number of revertants by plate (Means ± SD), TA98 ([13]; without S9 mix, 1 μg/plate): 32 ± 6^NS

O[C@H](CNCCCCCCF)c1ccc(-c2ccc(C(F)(F)F)cc2)nc1C(F)(F)F [Compound 30s]
IC50 [1]: 421 nM | IC50 [2]: 97.1 nM
